Test results published in US7183304B2, “Heterocyclic compounds and methods of use” (Novartis AG, priority 2001, dated 2007).

Columns and labels:
Assay type in all cases: biochemical
Conditions in all cases: TR-FRET coactivator (SRC-1) recruitment
[1] = biological target: T1, PPARα receptor (GST-hPPARα LBD) (Homo sapiens, UniProt Q07869); assay: PPARα functional binding assay (CARLA, TR-FRET)
T1 construct: made in house; host or cells: E. coli BL21 (DE3), pGEX vector
T1 sequence (Q07869 167-468): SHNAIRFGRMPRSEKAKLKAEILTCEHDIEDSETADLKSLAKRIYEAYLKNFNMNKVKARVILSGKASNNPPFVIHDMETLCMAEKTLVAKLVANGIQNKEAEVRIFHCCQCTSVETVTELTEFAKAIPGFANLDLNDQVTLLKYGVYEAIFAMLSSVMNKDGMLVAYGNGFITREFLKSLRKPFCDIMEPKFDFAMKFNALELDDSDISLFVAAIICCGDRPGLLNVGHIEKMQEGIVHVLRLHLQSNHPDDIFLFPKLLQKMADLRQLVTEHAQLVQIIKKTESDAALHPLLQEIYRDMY
Procedure: (§1) The in vitro functional binding to the PPARα, PPARδ and PPARγ receptors is determined as follows:
(§2) The functional binding assays for the PPARα, PPARδ and PPARγ receptors are a variation of the coactivator-dependent receptor ligand assay (CARLA) (see Krey et al., “Fatty Acids, Eicosanoids, and Hypolipidemic Agents Identified as Ligands of Peroxisome Proliferator-Activated Receptors by Coactivator-Dependent Receptor Ligand Assay”, Molecular Endocrinology, Vol. 11, pp. 779–791 (1997)). The present CARLA assays use a TR-FRET detection method previously reviewed (see Hemmila, “LANCE: Homogeneous Assay Platform for HTS”, J. Biomol. Screening, Vol. 4, pp. 303–307 (1999); Mathis, “HTRF Technology”, J. Biomol. Screening, Vol. 4, pp. 309–313 (1999)). All assays included 3 nM of the glutathione-S-transferase (GST) fusion proteins of either the hPPARα ligand binding domain (LBD) (amino acids 167–468) (GST-hPPARα LBD), GST-hPPARδ LBD (amino acids 139–442) or GST-hPPARγ LBD (amino acids 175–476); 3 nM Eu-labeled anti-GST antibody (Wallac); 30 nM biotinylated steroid receptor coactivator-1 (SRC-1) peptide (an N-terminal biotinylated peptide, […], derived from amino acids 676–700 of SRC-1); and 10 nM streptavidin-labelled allophycocyanin (APC; Prozyme). The binding of a ligand to a PPAR LBD alters the conformation of the LBD and permits the biotinylated SRC-1 peptide to bind. This brings the Eu-labeled anti-GST antibody and the strepavidin-labeled APC in close proximity, thereby facilitating fluorescence energy transfer. The biotinylated SRC-1 peptide is prepared by standard solid-phase peptide synthetic methods. The GST-PPAR LBDs are expressed in pGEX vectors (Amersham Pharmacia) in the E. coli strain BL21 (DE3) using standard expression conditions at 18° C. In some cases the GST-PPAR LBDs are co-expressed with groESL. […] After mixing all components, the reaction mixture stands for 3 hours at room temperature before reading the TR-FRET (Time-Resolved Fluorescence Resonance Energy Transfer) signal on a Wallac Victor 2 plate reader (measuring the ratio of signals at […]). […]

[2] = biological target: T2, PPARδ receptor (GST-hPPARδ LBD) (Homo sapiens, UniProt Q03181); assay: PPARδ functional binding assay (CARLA, TR-FRET)
T2 construct: GST-hPPARδ LBD (amino acids 139–442); made in house; host or cells: E. coli BL21 (DE3), pGEX vector
T2 sequence (Q03181 139-441 limits assumed): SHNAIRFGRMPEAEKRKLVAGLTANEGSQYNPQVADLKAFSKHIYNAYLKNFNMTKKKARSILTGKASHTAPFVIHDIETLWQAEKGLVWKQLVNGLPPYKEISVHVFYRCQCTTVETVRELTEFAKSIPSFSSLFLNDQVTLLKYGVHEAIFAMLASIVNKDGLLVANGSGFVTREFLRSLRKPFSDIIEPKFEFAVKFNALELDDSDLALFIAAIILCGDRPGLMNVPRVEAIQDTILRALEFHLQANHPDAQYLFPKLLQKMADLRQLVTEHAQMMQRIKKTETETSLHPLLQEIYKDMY
T2 sequence (Q15788 676-700 partner limits assumed): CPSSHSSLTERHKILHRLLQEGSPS
Procedure: as §1, §2

[3] = biological target: T3, PPARγ receptor (GST-hPPARγ LBD) (Homo sapiens, UniProt P37231); assay: PPARγ functional binding assay (CARLA, TR-FRET)
T3 construct: GST-hPPARγ LBD (amino acids 175–476); made in house; host or cells: E. coli BL21 (DE3), pGEX vector
T3 sequence (P37231 175-476 isoform P37231-2): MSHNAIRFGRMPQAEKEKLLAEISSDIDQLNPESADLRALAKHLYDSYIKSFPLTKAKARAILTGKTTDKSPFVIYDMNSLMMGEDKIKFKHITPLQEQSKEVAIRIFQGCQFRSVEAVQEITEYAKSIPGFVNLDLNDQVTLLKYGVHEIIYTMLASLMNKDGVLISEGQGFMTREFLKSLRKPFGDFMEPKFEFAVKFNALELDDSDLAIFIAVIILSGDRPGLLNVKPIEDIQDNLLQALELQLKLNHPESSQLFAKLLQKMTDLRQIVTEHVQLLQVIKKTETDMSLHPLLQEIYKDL
Procedure: as §1, §2

With Cc1oc(-c2ccccc2)nc1COc1ccc(S(=O)(=O)N2CCC[C@@H]2C(=O)O)cc1 [Example 6–39, (R)-1-[4-(5-Methyl-2-phenyl-oxazol-4-ylmethoxy)-benzenesulfonyl]-pyrrolidine-2-carboxylic acid] as the compound, how does the EC50 [1] read?
The EC50 was ~7 nM.

What about the EC50 [2] of the same compound?
The EC50 was ~1160 nM.

What about the EC50 [3] of the same compound?
The EC50 was ~2 nM.

For Cc1oc(-c2ccccc2)nc1COc1ccc(S(=O)(=O)N2CC[C@@H]2C(=O)O)cc1 [Example 5–10, (R)-1-[4-(5-Methyl-2-phenyl-oxazol-4-ylmethoxy)-benzenesulfonyl]-azetidine-2-carboxylic acid], which EC50 [1] is on record?
The EC50 was ~3 nM.

What about the EC50 [2] of the same compound?
Its EC50 is ~1250 nM.

What about the EC50 [3] of the same compound?
Its EC50 is ~3 nM.

CCCc1cc(Oc2ccccc2)ccc1OCCCOc1ccc(S(=O)(=O)N2c3ccccc3C[C@@H]2C(=O)O)cc1 [Example 1, (R)-1-{4-[3-(4-Phenoxy-2-propyl-phenoxy)-propoxy]-benzenesulfonyl}-2,3-dihydro-1H-indole-2-carboxylic acid] was tested. Which EC50 [1] did it give?
Its EC50 is ~27 nM.

What about the EC50 [2] of the same compound?
The EC50 was ~173 nM.

And the EC50 [3]?
The EC50 was ~23 nM.
